Blank lines part the entries; values can stand above or below the compound they belong to.
Key:
[1] = Evaluation of total body clearance (CLtot), intravenous administration; type: in vivo, Sprague-Dawley (SD); conditions: rat (SD), intravenous administration 0.5-10 mg/kg; CLtot = dose/AUC
Outline: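 Plasma levels quantified by LC/MS/MS after intravenous tail-vein dosing (0.5-10 mg/kg, compound-dependent; n=2-3). AUC from pharmacokinetic analysis; total clearance calculated as dose/AUC.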

[2] = Protein binding test (equilibrium dialysis, unbound ratio fu in serum); type: in vitro ADME; conditions: 37° C.; for rat_fu: rat serum, equilibrium dialysis 24 hours, 2 μg/mL
Procedure: Assay condition: Evaluation method; Equilibrium dialysis method, Reaction time; 24 hours, Reaction temperature; 37° C., Assay concentration; 2 μg/mL A solution of the compound was added to each serum and mixed to prepare the serum samples with above concentration. The serum sample was put into one side of an equilibrium dialysis apparatus with dialysis membrane and phosphate buffered saline (PBS) was also put to another side of the apparatus. The apparatus was incubated at 37° C. for 24 hours. After incubation, the serum and PBS samples were collected and the compound concentrations in both samples were measured by LC/MS/MS. Fu was calculated by dividing the concentration in PBS by the concentration in the serum.

HIV-1 PR = HIV-1 PR (Human immunodeficiency virus type 1 group M subtype B, UniProt P04585); test: HIV-protease inhibitory activity assay (FRET peptide substrate); type: biochemical; conditions: Test Example 1
Outline: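 Inhibition of HIV-1 protease was measured as loss of fluorescence dequenching of a HiLyte Fluor 488/QXL 520 peptide at 2 μmol/L, pH 4.8, room temperature, 60 minute reaction. IC50 was derived by nonlinear four-parameter fitting.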

SMILES: COc1ccc(S(=O)(=O)N(CC(C)C)CC(O)C(Cc2ccc(NCc3ccc(-c4sc5c(c4C(=O)O)CC(C)(C)CC5)cc3)cc2)NC(=O)OC2COC3(C)OCCC23)cc1 (centres unmarked) [Compound I-253]
rat_CLt [1]: 4.65 mL/min/kg
rat_fu [2]: <0.1%
IC50 (HIV-1 PR): 2.59 nM

SMILES: CC(C)CN(CC(O)C(Cc1ccc(OCc2ccccc2-c2sc3c(c2C(=O)O)CC(C)(C)CC3)cc1)NC(=O)OC1COC2(C)OCCC12)S(=O)(=O)c1ccc2nc(O)sc2c1 (centres unmarked) [Compound I-131]
rat_CLt [1]: 2.27 mL/min/kg
rat_fu [2]: <0.1%
IC50 (HIV-1 PR): 2.12 nM

SMILES: COc1ccc(S(=O)(=O)N(CC(C)C)CC(O)C(Cc2ccc(CN(C)c3ccc(-c4sc5c(c4C(=O)O)CC(C)(C)CC5)c(C)c3)cc2)NC(=O)OC2COC3(C)OCCC23)cc1 (centres unmarked) [Compound I-376]
rat_CLt [1]: 0.485 mL/min/kg
rat_fu [2]: <0.1%
IC50 (HIV-1 PR): 9.86 nM

fraction unbound at 24 h, 2 μg/mL ([2]; serum, equilibrium dialysis, 24 hours, read-out: Serum protein binding rate (converted)): 0.903
SMILES: CC(C)CN(C[C@@H](O)[C@H](Cc1ccccc1)NC(=O)O[C@H]1CO[C@H]2OCC[C@H]21)S(=O)(=O)c1ccc(N)cc1 [Darunavir, (3R,3aS,6aR)-hexahydrofuro[2,3-b]furan-3-yl[(1S,2R)-3-{[(4-aminophenyl)sulfonyl] (2-methylpropyl)amino}-1-benzyl-2-hydroxypropyl]carbamate, reference compound]

SMILES: COc1ccc(S(=O)(=O)N(CC(C)C)CC(O)C(Cc2ccc(OCc3cc(N(C)C)ccc3-c3sc4c(c3C(=O)O)CC(C)(C)CC4)cc2)NC(=O)OC2COC3(C)OCCC23)cc1 (centres unmarked) [Compound I-206]
rat_CLt [1]: 0.162 mL/min/kg
rat_fu [2]: <0.1%
IC50 (HIV-1 PR): 3.38 nM

SMILES: COc1ccc(S(=O)(=O)N(CC2CCCC2)CC(O)C(Cc2ccc(OCc3nc(C)sc3-c3sc4c(c3C(=O)O)CC(C)(C)CC4)cc2)NC(=O)OC2COC3(C)OCCC23)cc1 (centres unmarked) [Compound I-248]
rat_CLt [1]: 2.47 mL/min/kg
rat_fu [2]: <0.1%
IC50 (HIV-1 PR): 2.26 nM

SMILES: COc1ccc(S(=O)(=O)N(CC(C)C)C[C@@H](O)[C@H](Cc2ccc(OCc3ccccc3-c3sc4c(c3C(=O)O)CC(C)(C)CC4)cc2)NC(=O)OC2CO[C@H]3OC[C@H](OC)[C@@H]23)cc1 (some centres unmarked) [Compound I-907]
rat_CLt [1]: 0.73 mL/min/kg
rat_fu [2]: <0.1%
IC50 (HIV-1 PR): 1.27 nM

SMILES: COc1ccc(S(=O)(=O)N(CC(C)C)CC(O)C(Cc2ccc(OCc3ccccc3-c3ccc(Oc4ccc(-c5c(O)c6ccc(Cl)cc6[nH]c5=O)cc4)cc3)cc2)NC(=O)OC2COC3OCCC23)cc1 (centres unmarked) [Compound I-847]
rat_CLt [1]: 6 mL/min/kg
rat_fu [2]: <0.1%
IC50 (HIV-1 PR): 3.38 nM

SMILES: COc1ccc(S(=O)(=O)N(CC(C)C)CC(O)C(Cc2ccc(OCc3ccccc3-n3nc4c(c3C(=O)O)CC(C)(C)CC4)cc2)NC(=O)OC2COC3OCCC23)cc1 (centres unmarked) [Compound I-807]
rat_CLt [1]: 0.61 mL/min/kg
rat_fu [2]: <0.1%
IC50 (HIV-1 PR): 0.86 nM

SMILES: COc1ccc(S(=O)(=O)N(CC(C)C)CC(O)C(Cc2ccc(OCC3=C(c4sc5c(c4C(=O)O)CC(C)(C)CC5)CCCC3)cc2)NC(=O)OC2COC3(C)OCCC23)cc1 (centres unmarked) [Compound I-243]
rat_CLt [1]: 0.477 mL/min/kg
rat_fu [2]: <0.1%
IC50 (HIV-1 PR): 4.24 nM

SMILES: COc1ccc(S(=O)(=O)N(CC(C)C)CC(O)C(Cc2ccc(NCCCc3ccccc3-c3sc4c(c3C(=O)O)CC(C)(C)CC4)cc2)NC(=O)OC2COC3(C)OCCC23)cc1 (centres unmarked) [Compound I-260]
rat_CLt [1]: 0.801 mL/min/kg
rat_fu [2]: <0.1%
IC50 (HIV-1 PR): 2.96 nM

SMILES: COc1ccc(S(=O)(=O)N(CC(C)C)CC(O)C(Cc2ccc(N(C)CC3=C(c4sc5c(c4C(=O)O)CC(C)(C)CC5)CCCC3)cc2)NC(=O)OC2COC3(C)OCCC23)cc1 (centres unmarked) [Compound I-236]
rat_CLt [1]: 0.763 mL/min/kg
rat_fu [2]: <0.1%
IC50 (HIV-1 PR): 2.9 nM

SMILES: CCN(Cc1ccccc1-c1sc2c(c1C(=O)O)CC(C)(C)CC2)c1ccc(CC(NC(=O)OC2COC3(C)OCCC23)C(O)CN(CC(C)C)S(=O)(=O)c2ccc(OC)cc2)cc1 (centres unmarked) [Compound I-352]
rat_CLt [1]: 3.26 mL/min/kg
rat_fu [2]: <0.1%
IC50 (HIV-1 PR): 4.22 nM

SMILES: COc1ccc(S(=O)(=O)N(CC(C)C)C[C@@H](O)[C@H](Cc2ccc(O[C@@H]3CCN(c4ccccc4-c4sc5c(c4C(=O)O)CC(C)(C)CC5)C3)cc2)NC(=O)O[C@H]2CO[C@@]3(C)OCC[C@@H]23)cc1 [Compound I-6]
rat_CLt [1]: 1.22 mL/min/kg
rat_fu [2]: <0.1%
IC50 (HIV-1 PR): 1.36 nM

SMILES: COc1ccc(S(=O)(=O)N(CC(C)C)CC(O)C(Cc2ccc(SCc3ccccc3-c3sc4c(c3C(=O)O)CC(C)(C)CC4)cc2)NC(=O)OC2COC3(C)OCCC23)cc1 (centres unmarked) [Compound I-380]
rat_CLt [1]: 0.702 mL/min/kg
rat_fu [2]: <0.1%
IC50 (HIV-1 PR): 5.51 nM

SMILES: COc1ccc(S(=O)(=O)N(CC2CCC2)CC(O)C(Cc2ccc(NCc3ccccc3C(=O)Nc3sc4c(c3C(=O)O)CC(C)(C)CC4)cc2)NC(=O)OC2COC3(C)OCCC23)cc1 (centres unmarked) [Compound I-602]
rat_CLt [1]: 0.0667 mL/min/kg
IC50 (HIV-1 PR): 3.67 nM

SMILES: CC1(C)CCc2sc(-c3ccccc3CNc3ccc(CC(NC(=O)OC4COC5(C)OCCC45)C(O)CN(CC4CCCC4)S(=O)(=O)c4ccc5c(c4)OCO5)cc3)c(C(=O)O)c2C1 (centres unmarked) [Compound I-484]
rat_CLt [1]: 1.58 mL/min/kg
IC50 (HIV-1 PR): 2.43 nM

SMILES: COc1ccc(S(=O)(=O)N(CC(C)C)CC(O)C(Cc2ccc(NCC3=C(C(=O)Nc4sc5c(c4C(=O)O)CC(C)(C)CC5)CCC3)cc2)NC(=O)OC2COC3(C)OCCC23)cc1 (centres unmarked) [Compound I-589]
rat_CLt [1]: 0.311 mL/min/kg
IC50 (HIV-1 PR): 3.48 nM

SMILES: COc1ccc(S(=O)(=O)N(CC(C)C)CC(O)C(Cc2ccc(N(C)Cc3ccccc3-c3sc(N(C4CCCCC4)C4CCCCC4)nc3C(=O)O)cc2)NC(=O)OC2COC3(C)OCCC23)cc1 (centres unmarked) [Compound I-471]
rat_CLt [1]: 2.17 mL/min/kg
IC50 (HIV-1 PR): 4.69 nM

SMILES: COc1ccc(S(=O)(=O)N(CC(C)C)CC(O)C(Cc2ccc(NCc3cc(N4CCOCC4)ccc3-c3sc4c(c3C(=O)O)CC(C)(C)CC4)cc2)NC(=O)OC2COC3(C)OCCC23)cc1 (centres unmarked) [Compound I-679]
rat_CLt [1]: 1.65 mL/min/kg
IC50 (HIV-1 PR): 2.82 nM

SMILES: COc1ccc(S(=O)(=O)N(CC(C)C)CC(O)C(Cc2ccc(NCc3cocc3-c3sc4c(c3C(=O)O)CC(C)(C)CC4)cc2)NC(=O)OC2COC3(C)OCCC23)cc1 (centres unmarked) [Compound I-528]
rat_CLt [1]: 4.05 mL/min/kg
IC50 (HIV-1 PR): 2.36 nM

SMILES: COc1ccc(S(=O)(=O)N(CC(C)C)CC(O)C(Cc2ccc(NCC3CCCC3c3sc4c(c3C(=O)O)CC(C)(C)CC4)cc2)NC(=O)OC2COC3(C)OCCC23)cc1 (centres unmarked) [Compound I-409]
rat_CLt [1]: 0.873 mL/min/kg
IC50 (HIV-1 PR): 2.45 nM

SMILES: COc1ccc(S(=O)(=O)N(CC(C)C)CC(O)C(Cc2ccc(N(C)Cc3ccc(-c4sc5c(c4C(=O)O)CC(C)(C)CC5)cn3)cc2)NC(=O)OC2COC3(C)OCCC23)cc1 (centres unmarked) [Compound I-449]
rat_CLt [1]: 11.1 mL/min/kg
IC50 (HIV-1 PR): 2.19 nM

SMILES: COc1ccc(S(=O)(=O)N(CC(C)C)CC(O)C(Cc2ccc(N3CC(Oc4ccccc4C(=O)Nc4sc5c(c4C(=O)O)CC(C)(C)CC5)C3)cc2)NC(=O)OC2COC3(C)OCCC23)cc1 (centres unmarked) [Compound I-575]
rat_CLt [1]: 0.267 mL/min/kg
IC50 (HIV-1 PR): 8.32 nM

SMILES: COc1ccc(S(=O)(=O)N(CC2CCC2)CC(O)C(Cc2ccc(NCc3ccccc3C(=O)Nc3sc4c(c3C(=O)O)CC(C)(C)CC4)cc2)NC(=O)OC2COC3OCCC23)cc1 (centres unmarked) [Compound I-860]
rat_CLt [1]: 0.0981 mL/min/kg
IC50 (HIV-1 PR): 3.56 nM

SMILES: COc1ccc(S(=O)(=O)N(CC(C)C)CC(O)C(Cc2ccc(NCc3cc4ccccc4nc3-c3sc4c(c3C(=O)O)CC(C)(C)CC4)cc2)NC(=O)OC2COC3(C)OCCC23)cc1 (centres unmarked) [Compound I-652]
rat_CLt [1]: 0.641 mL/min/kg
IC50 (HIV-1 PR): 2.46 nM

SMILES: COc1ccc(S(=O)(=O)N(CC(C)C)CC(O)C(Cc2ccc(NCc3ccc(Cl)cc3-c3sc4c(c3C(=O)O)CC(C)(C)CC4)cc2)NC(=O)OC2COC3(C)OCCC23)cc1 (centres unmarked) [Compound I-563]
rat_CLt [1]: 0.883 mL/min/kg
IC50 (HIV-1 PR): 2.13 nM

SMILES: COc1ccc(S(=O)(=O)N(CC(C)C)CC(O)C(Cc2ccc(NCc3cc(C)ccc3-c3sc4c(c3C(=O)O)CC(C)(C)CC4)cc2)NC(=O)OC2COC3(C)OCCC23)cc1 (centres unmarked) [Compound I-545]
rat_CLt [1]: 1.15 mL/min/kg
IC50 (HIV-1 PR): 1.85 nM

SMILES: COc1ccc(S(=O)(=O)N(CC(C)C)CC(O)C(Cc2ccc(N(C)Cc3cc(C(F)(F)F)ccc3-c3sc4c(c3C(=O)O)CC(C)(C)CC4)cc2)NC(=O)OC2COC3(C)OCCC23)cc1 (centres unmarked) [Compound I-451]
rat_CLt [1]: 0.211 mL/min/kg
IC50 (HIV-1 PR): 9.46 nM

SMILES: CC1(C)CCc2sc(NC(=O)c3ccccc3CNc3ccc(CC(NC(=O)OC4COC5(C)OCCC45)C(O)CN(CC4CCC4)S(=O)(=O)c4ccc5c(c4)OCO5)cc3)c(C(=O)O)c2C1 (centres unmarked) [Compound I-613]
rat_CLt [1]: 0.0573 mL/min/kg
IC50 (HIV-1 PR): 2.55 nM

SMILES: COc1ccc(S(=O)(=O)N(CC(C)C)CC(O)C(Cc2ccc(NCc3ccc(N4CCCC4=O)cc3-c3sc4c(c3C(=O)O)CC(C)(C)CC4)cc2)NC(=O)OC2COC3(C)OCCC23)cc1 (centres unmarked) [Compound I-742]
rat_CLt [1]: 5.03 mL/min/kg
IC50 (HIV-1 PR): 2.08 nM

SMILES: COc1ccc(S(=O)(=O)N(CC(C)C)CC(O)C(Cc2ccc(N(CCCc3sc4c(c3C(=O)O)CC(C)(C)CC4)Cc3ccccc3)cc2)NC(=O)OC2COC3(C)OCCC23)cc1 (centres unmarked) [Compound I-371]
rat_CLt [1]: 4.69 mL/min/kg
IC50 (HIV-1 PR): 10.5 nM

From patent publication US20170253607A1, “LONG-ACTING HIV PROTEASE INHIBITOR” (Shionogi & Co., Ltd., priority 2014, published 2017)
